Data: patent US9198896B2 (priority 2006, dated 2015)

Columns and labels:
[1] = system: EAC cells; test: Tumor growth inhibition study; settings: individually, at the concentrations mentioned in Table 7
Method: Tumor growth inhibition study: For this study, the total number of EAC cells was counted. The ascites fluid containing cells were quantitatively removed from peritoneal cavity of two mice for a particular drug combination. The cavity was further washed twice with a fixed volume of 0.9% NaCl. The washing and the ascites fluid containing the cells were pooled and centrifuged at 2000×g for 5 min. The packed cell volumes were noted. A fixed amount of aliquot from the packed cells was appropriately diluted, and the number of cells was counted in a hemocytometer. Averages (X^−±SEM) were made of these two parameters, and percentage inhibitions [(1−T/C)×100] were calculated for each dose of different test combinations.

[2] = system: Ehrlich ascites cells; test: Loss of viability of Ehrlich ascites cells on incubation; settings: read-out: reduction of viability of Ehrlich ascites cells

Row | SMILES | effect on EAC cells inoculated mice [1] | cytotoxicity at 200 µM [2]
1 | O=C1O[C@H]([C@@H](O)CO)C(O)=C1O [ascorbic acid, reference compound] | no effect | –
2 | CN(CC(=O)O)C(=N)N [creatine] | no effect | –
3 | COc1ccc2[nH]cc(CCNC(C)=O)c2c1 [melatonin] | – | ~10%
